Common to all, as to details: human, microsomes
The nature of series [1]: (§1) Fraction of total metabolites recovered as M4. It counts as ADME, Small intestine, Microsome.
Series [2] in a line: as §1. It counts as ADME, Liver, Microsome.
Series [3] in a line: (§2) Fraction of total metabolites recovered as M10. It counts as ADME, Small intestine, Microsome.
Series [4] is described as follows: as §2. The format is ADME, Liver, Microsome.

This passage reports Compound recovery results from ChEMBL document CHEMBL3706492, “CYP3A4-mediated hepatic metabolism of the HIV-1 protease inhibitor saquinavir in vitro” (Xenobiotica, 2002).

Turning to `CC(C)(C)NC(=O)[C@@H]1C[C@@H]2C[C@@H](O)CC[C@@H]2CN1C[C@@H](O)[C@H](Cc1ccccc1)NC(=O)[C@H](CC(N)=O)NC(=O)c1ccc2ccccc2n1`, the Compound recovery in series [1] and in series [2] was 21% each time.

Take `CC(C)(CO)NC(=O)[C@@H]1C[C@@H]2CCCC[C@@H]2CN1C[C@@H](O)[C@H](Cc1ccccc1)NC(=O)[C@H](CC(N)=O)NC(=O)c1ccc2ccccc2n1`: the Compound recovery in series [3] and in series [4] was 6% throughout.
